{
  "source": "patent US20250171459A1",
  "about": "“2-METHYL-4',5'-DIHYDROSPIRO[PIPERIDINE-4,7'-THIENO[2,3-C]PYRAN] DERIVATIVES AS INHIBITORS OF APOL1 AND METHODS OF USING SAME” (Vertex Pharmaceuticals Incorporated, priority 2022, published 2025)",
  "data": [
    {"target": "T1, APOL1 (Homo sapiens, UniProt O14791)", "T1 sequence (O14791 1-398 S342G/I384M)": "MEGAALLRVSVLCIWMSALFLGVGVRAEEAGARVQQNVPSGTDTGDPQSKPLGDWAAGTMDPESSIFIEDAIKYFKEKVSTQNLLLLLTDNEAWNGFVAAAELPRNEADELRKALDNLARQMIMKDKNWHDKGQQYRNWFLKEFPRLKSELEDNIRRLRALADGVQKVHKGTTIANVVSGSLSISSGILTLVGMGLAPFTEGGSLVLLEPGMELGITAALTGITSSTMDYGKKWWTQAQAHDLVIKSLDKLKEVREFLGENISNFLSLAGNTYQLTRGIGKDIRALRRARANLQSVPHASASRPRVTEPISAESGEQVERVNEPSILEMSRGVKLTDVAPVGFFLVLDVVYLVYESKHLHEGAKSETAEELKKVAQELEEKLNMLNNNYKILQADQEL", "test": "MultiTox-Fluor Multiplex Cytotoxicity Assay in tet-inducible APOL1 T-REx-HEK293 cells (cell rescue, ratio of dead to live cells)", "assay_type": "cell-based", "conditions": "tet-inducible transgenic APOL1 T-REx-HEK293 cell lines, 50 ng/mL tet, 24 hours; read-out: IP50 (i.e., IC50 for cell proliferation)", "how_it_was_run": "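T-REx-HEK293 cells with tet-inducible APOL1 were treated with compound (10 μM top, 10-point 3-fold dilution, duplicate) plus 50 ng/mL tetracycline for 24 h at 37° C, in DMEM with 2% tet-free FBS. MultiTox-Fluor protease signals gave a dead/live ratio, normalized to no tet (100% viability) and tet alone (0%).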", "units": {"IC50": "nM"}, "values": [
      {"smiles": "CCc1cc2c(s1)CCOC21CCN(Cc2ccc(C(=O)Nc3cccc4cc[nH]c34)nc2)CC1", "note": "[Compound 1048]", "IC50": "< 100"},
      {"smiles": "CCc1cc2c(s1)CCO[C@@]21CCN(CC2CN(C(=O)CCS(C)(=O)=O)C2)[C@@H](C)C1", "note": "[Compound 454]", "IC50": "100 to 500"},
      {"smiles": "CCc1cc2c(s1)CCO[C@@]21CCN(Cc2cn(C3CN(C(=O)OC(C)(C)C)C3)nn2)[C@@H](C)C1", "note": "[Compound 21]", "IC50": "< 100"},
      {"smiles": "CCc1cc2c(s1)CCO[C@@]21CCN(CC2CN(C(=O)CCC3CCCC3)C2)[C@@H](C)C1", "note": "[Compound 434]", "IC50": "< 100"},
      {"smiles": "CCc1cc2c(s1)CCO[C@@]21CCN(Cc2cn(Cc3ncc(C)o3)nn2)[C@@H](C)C1", "note": "[Compound 40]", "IC50": "100 to 500"},
      {"smiles": "CCc1cc2c(s1)CCO[C@@]21CCN(Cc2cn(C3(CO)CC3)nn2)[C@@H](C)C1", "note": "[Compound 127]", "IC50": "500 to 1000"},
      {"smiles": "CNC(=O)[C@H](O)Cn1cc(CN2CC[C@]3(C[C@@H]2C)OCCc2c3sc(C(F)(F)F)c2CO)cn1", "note": "[Compound 986, (2R)-2-hydroxy-3-[4-[[(2′S, 7R)-3-(hydroxymethyl)-2′-methyl-2-(trifluoromethyl)spiro[4,5-dihydrothieno[2,3-c]pyran-7,4′-piperidine]-1′-yl]methyl]pyrazol-1-yl]-N-methyl-propanamide]", "IC50": "< 100"},
      {"smiles": "CCc1cc2c(s1)CCOC21CCN(Cc2ccc(C(=O)NC(C)(CC)CO)nc2)CC1", "note": "(stereo not shown) [Compound 1045]", "IC50": "< 100"},
      {"smiles": "C[C@H]1C[C@@]2(CCN1Cc1cn(CCS(C)(=O)=O)nn1)OCCc1c2sc(C(F)(F)F)c1CO", "note": "[Compound 871, [(2′S, 7R)-2′-methyl-1′-[[1-(2-methylsulfonylethyl)triazol-4-yl]methyl]-2-(trifluoromethyl)spiro[4,5-dihydrothieno[2,3-c]pyran-7,4′-piperidine]-3-yl]methanol]", "IC50": "< 100"},
      {"smiles": "C[C@H]1C[C@@]2(CCN1CC1(C)COC1)OCCc1c2sc(Cl)c1CO", "note": "[Compound 746]", "IC50": "500 to 1000"},
      {"smiles": "C[C@H]1C[C@@]2(CCN1Cc1cccc(OCCO)c1)OCCc1cc(Cl)sc12", "note": "[Compound 646]", "IC50": "< 100"},
      {"smiles": "C[C@H]1C[C@@]2(CCN1Cc1cnn(CCS(C)(=O)=O)c1)OCC(O)c1cc(Cl)sc12", "note": "(single isomer, unassigned) [Compound 768]", "IC50": "< 100"},
      {"smiles": "C[C@H]1C[C@@]2(CCN1Cc1cn(C3CCOCC3)nn1)OC[C@](O)(C(F)F)c1cc(Cl)sc12", "note": "[Compound 841]", "IC50": "< 100"},
      {"smiles": "C[C@H]1C[C@@]2(CCN1Cc1cncn1C)OCCc1cc(CC(F)F)sc12", "note": "[Compound 587]", "IC50": "100 to 500"},
      {"smiles": "C#CC(C)N1CC[C@]2(C[C@@H]1C)OCCc1cc(Cl)sc12", "note": "(stereo partly drawn) [Compound 694, (2′S, 7R)-2-chloro-2′-methyl-1′-(1-methylprop-2-ynyl)spiro[4,5-dihydrothieno[2,3-c]pyran-7,4′-piperidine]]", "IC50": "500 to 1000"},
      {"smiles": "CCc1cc2c(s1)CCO[C@@]21CCN(C2CCCC2O)[C@@H](C)C1", "note": "(stereo partly shown) [Compound 245]", "IC50": "100 to 500"},
      {"smiles": "CCc1cc2c(s1)CCOC21CCN(Cc2cnc(N)s2)CC1", "note": "[Compound 1134]", "IC50": "100 to 500"},
      {"smiles": "CCc1cc2c(s1)CCOC21CCN(Cc2cn(CCc3noc(C)n3)nn2)CC1", "note": "[Compound 1109]", "IC50": "500 to 1000"},
      {"smiles": "C[C@H]1C[C@@]2(CCN1Cc1cnn(CC(O)C3CCCOC3)c1)OCCc1c2sc(C(F)(F)F)c1CO", "note": "(stereo partly shown) [Compound 946]", "IC50": "< 100"},
      {"smiles": "CCc1cc2c(s1)CCOC21CCN(Cc2ccc(C(=O)NC(C)CCO)nc2)CC1", "note": "(stereo not shown) [Compound 1054]", "IC50": "< 100"},
      {"smiles": "C[C@H]1C[C@@]2(CCN1CC1CCC(=O)N1)OCCc1cc(CC(F)F)sc12", "note": "(stereo partly shown) [Compound 619]", "IC50": "100 to 500"},
      {"smiles": "CCc1cc2c(s1)CCO[C@@]21CCN(Cc2cnc(NC34CCC(CO)(C3)C4)nc2)[C@@H](C)C1", "note": "[Compound 210]", "IC50": "< 100"},
      {"smiles": "CCc1cc2c(s1)CCO[C@@]21CCN(C[C@H]2C[C@@H](NC(=O)OC(C)C)C2)[C@@H](C)C1", "note": "[Compound 376]", "IC50": "< 100"},
      {"smiles": "CCc1cc2c(s1)CCOC21CCN(Cc2cn(CC(COC)OC)nn2)C(C)C1", "note": "(stereo not shown) [Compound 137]", "IC50": "< 100"},
      {"smiles": "CCc1cc2c(s1)CCOC21CCN(Cc2ccc(N(C)S(C)(=O)=O)nc2)CC1", "note": "[Compound 1071]", "IC50": "100 to 500"}
    ]}
  ]
}
